Blank lines part the entries; values can stand above or below the compound they belong to.
Assays:
Histone deacetylase 1 = Histone deacetylase 1 (Homo sapiens, UniProt Q13547); assay: Inhibition of HDAC1 (unknown origin)
[1] = molecular target: Fibroblast growth factor receptor 4 (Homo sapiens, UniProt P22455); assay: Inhibition of FGFR4 (unknown origin)
Histone deacetylase 8 = molecular target: T1, Histone deacetylase 8 (Homo sapiens, UniProt Q9BY41); assay: Inhibition of HDAC8 (unknown origin)
T1 sequence (Q9BY41 whole entry): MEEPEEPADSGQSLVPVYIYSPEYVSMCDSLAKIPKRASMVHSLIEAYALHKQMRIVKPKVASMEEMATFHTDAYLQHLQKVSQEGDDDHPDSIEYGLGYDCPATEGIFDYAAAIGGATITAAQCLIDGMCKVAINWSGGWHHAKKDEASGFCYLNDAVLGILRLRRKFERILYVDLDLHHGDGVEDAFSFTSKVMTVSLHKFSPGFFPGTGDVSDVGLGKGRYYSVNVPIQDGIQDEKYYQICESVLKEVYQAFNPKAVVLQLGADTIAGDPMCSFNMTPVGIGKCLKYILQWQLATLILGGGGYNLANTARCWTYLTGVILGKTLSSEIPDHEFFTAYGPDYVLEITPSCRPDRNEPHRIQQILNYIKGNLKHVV

[2] = molecular target: Fibroblast growth factor receptor 2 (Homo sapiens, UniProt P21802); assay: Inhibition of FGFR2 (unknown origin)
Sequence of Fibroblast growth factor receptor 2 (P21802 whole entry): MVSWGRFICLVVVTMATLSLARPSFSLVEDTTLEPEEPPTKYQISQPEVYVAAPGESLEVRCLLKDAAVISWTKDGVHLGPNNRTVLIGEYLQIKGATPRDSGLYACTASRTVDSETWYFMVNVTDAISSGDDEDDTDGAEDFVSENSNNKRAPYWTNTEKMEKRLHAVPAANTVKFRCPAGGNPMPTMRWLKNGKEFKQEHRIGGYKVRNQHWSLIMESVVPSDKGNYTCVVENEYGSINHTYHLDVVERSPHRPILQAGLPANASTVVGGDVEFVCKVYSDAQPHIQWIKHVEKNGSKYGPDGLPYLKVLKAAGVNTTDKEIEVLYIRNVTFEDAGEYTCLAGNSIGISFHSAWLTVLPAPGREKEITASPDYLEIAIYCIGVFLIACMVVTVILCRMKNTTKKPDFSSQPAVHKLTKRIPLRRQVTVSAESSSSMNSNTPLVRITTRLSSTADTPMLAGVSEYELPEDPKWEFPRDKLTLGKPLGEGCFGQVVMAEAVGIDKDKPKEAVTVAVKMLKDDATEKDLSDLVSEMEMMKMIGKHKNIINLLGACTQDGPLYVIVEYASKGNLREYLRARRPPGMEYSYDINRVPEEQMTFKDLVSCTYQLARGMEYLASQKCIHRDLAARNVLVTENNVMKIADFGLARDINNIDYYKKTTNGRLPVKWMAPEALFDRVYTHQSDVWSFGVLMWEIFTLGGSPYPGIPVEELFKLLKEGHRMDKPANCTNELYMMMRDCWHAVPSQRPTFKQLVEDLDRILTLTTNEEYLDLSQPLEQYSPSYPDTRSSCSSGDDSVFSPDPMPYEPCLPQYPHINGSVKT

[3] = molecular target: Fibroblast growth factor receptor 3 (Homo sapiens, UniProt P22607); assay: Inhibition of FGFR3 (unknown origin)
Sequence of Fibroblast growth factor receptor 3 (P22607 whole entry): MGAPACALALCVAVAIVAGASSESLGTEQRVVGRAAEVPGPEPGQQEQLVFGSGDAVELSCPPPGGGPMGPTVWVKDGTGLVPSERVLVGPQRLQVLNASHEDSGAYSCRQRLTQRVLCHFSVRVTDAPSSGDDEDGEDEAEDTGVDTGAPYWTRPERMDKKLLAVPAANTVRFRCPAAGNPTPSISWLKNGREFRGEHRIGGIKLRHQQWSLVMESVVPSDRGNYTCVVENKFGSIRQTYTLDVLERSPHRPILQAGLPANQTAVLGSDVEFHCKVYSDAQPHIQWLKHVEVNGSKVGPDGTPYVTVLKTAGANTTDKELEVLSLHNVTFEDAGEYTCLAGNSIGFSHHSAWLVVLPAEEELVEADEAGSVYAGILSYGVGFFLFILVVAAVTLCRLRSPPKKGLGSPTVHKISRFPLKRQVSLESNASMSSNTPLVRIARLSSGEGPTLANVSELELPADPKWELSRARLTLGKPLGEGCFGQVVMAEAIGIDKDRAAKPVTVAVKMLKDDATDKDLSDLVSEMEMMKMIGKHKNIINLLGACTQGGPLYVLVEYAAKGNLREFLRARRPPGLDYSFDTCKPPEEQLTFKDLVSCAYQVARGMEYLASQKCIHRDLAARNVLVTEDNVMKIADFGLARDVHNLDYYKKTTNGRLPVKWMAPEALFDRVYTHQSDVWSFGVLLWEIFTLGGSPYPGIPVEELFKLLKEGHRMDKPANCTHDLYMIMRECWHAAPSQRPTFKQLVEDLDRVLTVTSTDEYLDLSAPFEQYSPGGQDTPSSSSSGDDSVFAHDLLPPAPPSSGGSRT

[4] = molecular target: T2, Protein deacetylase HDAC6 (Homo sapiens, UniProt Q9UBN7); assay: Inhibition of HDAC6 (unknown origin)
T2 sequence (Q9UBN7 whole entry): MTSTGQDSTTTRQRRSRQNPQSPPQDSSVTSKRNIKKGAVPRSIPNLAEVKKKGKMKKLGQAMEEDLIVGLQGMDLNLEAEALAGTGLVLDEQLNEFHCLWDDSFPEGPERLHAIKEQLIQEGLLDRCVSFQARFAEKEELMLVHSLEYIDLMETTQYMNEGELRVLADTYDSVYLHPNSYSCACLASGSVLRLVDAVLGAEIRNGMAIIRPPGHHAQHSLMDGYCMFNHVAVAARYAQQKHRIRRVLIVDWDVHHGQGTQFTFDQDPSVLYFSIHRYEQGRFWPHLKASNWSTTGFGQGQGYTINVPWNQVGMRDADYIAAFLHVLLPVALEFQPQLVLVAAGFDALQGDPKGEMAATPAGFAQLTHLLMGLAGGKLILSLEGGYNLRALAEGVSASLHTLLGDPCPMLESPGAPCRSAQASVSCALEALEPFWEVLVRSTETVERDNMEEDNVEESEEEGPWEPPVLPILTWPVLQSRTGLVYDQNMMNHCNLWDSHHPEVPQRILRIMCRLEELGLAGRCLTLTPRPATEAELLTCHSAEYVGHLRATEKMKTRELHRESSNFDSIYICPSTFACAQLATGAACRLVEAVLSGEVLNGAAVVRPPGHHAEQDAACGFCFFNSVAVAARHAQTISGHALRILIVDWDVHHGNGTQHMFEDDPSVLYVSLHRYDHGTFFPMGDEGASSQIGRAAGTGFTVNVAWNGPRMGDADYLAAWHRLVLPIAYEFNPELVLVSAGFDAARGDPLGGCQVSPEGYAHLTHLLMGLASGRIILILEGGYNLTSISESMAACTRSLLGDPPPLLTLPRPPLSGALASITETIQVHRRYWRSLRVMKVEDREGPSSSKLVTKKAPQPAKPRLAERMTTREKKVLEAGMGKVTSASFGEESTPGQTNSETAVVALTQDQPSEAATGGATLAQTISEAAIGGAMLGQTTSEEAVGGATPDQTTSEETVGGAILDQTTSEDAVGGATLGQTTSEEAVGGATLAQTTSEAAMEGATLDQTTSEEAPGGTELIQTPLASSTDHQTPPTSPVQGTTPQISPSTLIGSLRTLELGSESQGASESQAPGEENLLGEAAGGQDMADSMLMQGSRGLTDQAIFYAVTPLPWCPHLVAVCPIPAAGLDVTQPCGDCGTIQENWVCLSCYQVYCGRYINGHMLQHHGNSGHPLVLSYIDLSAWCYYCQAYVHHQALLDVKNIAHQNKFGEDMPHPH

K562 = assay: cells; assay type: functional, cell-based; details: Homo sapiens, K562, 72 h
cells = assay type: functional, cell-based; details: Homo sapiens, KATO III, 72 h
[5] = molecular target: Fibroblast growth factor receptor 1 (Homo sapiens, UniProt P11362); assay: Inhibition of FGFR1 (unknown origin)
Sequence of Fibroblast growth factor receptor 1 (P11362 whole entry): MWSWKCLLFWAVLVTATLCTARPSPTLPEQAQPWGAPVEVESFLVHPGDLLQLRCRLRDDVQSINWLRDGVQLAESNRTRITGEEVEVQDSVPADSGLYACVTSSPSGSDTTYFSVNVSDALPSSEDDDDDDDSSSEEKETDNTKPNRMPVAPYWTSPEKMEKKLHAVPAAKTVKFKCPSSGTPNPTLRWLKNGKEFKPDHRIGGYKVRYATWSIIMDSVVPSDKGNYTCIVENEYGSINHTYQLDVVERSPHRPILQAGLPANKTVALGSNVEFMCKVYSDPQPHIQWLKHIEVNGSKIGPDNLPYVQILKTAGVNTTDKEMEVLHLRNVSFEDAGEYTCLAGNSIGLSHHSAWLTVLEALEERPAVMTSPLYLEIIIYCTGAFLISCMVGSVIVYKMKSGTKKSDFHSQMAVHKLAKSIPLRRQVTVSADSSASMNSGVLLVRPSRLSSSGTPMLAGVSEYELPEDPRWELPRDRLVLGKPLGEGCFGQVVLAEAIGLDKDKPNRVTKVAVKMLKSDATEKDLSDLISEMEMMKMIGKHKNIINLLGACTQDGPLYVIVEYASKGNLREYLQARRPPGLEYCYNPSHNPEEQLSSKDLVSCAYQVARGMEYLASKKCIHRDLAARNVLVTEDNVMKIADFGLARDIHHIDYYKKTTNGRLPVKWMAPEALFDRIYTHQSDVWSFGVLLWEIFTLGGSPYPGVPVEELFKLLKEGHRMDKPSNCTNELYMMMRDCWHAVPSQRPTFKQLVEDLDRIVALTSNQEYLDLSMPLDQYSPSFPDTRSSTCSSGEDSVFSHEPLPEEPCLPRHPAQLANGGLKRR

A2780 = assay: cells; assay type: functional, cell-based; details: Homo sapiens, A2780, 72 h
Jurkat = assay: cells; assay type: functional, cell-based; details: Homo sapiens, 72 h
SNU-16 [6] = assay: cells; assay type: functional, cell-based; details: Homo sapiens, SNU-16, 72 h
HCT-116 = assay: cells; assay type: functional, cell-based; details: Homo sapiens, HCT-116, 72 h
SNU-16 [7] = assay: Induction of apoptosis in human SNU-16 cells assessed as dead cells at 0.03 uM incubated for 72 hrs by annexin-V/FITC propidium iodide staining based flow cytometry analysis (reference value: […]); assay type: functional
SNU-16 [8] = assay: Induction of apoptosis in human SNU-16 cells assessed as live cells at 0.1 uM incubated for 72 hrs by annexin-V/FITC propidium iodide staining based flow cytometry analysis (reference value: 90.92%); assay type: functional
SNU-16 [9] = assay: Induction of apoptosis in human SNU-16 cells assessed as dead cells at 0.3 uM incubated for 72 hrs by annexin-V/FITC propidium iodide staining based flow cytometry analysis (reference value: […]); assay type: functional
SNU-16 [10] = assay: Induction of apoptosis in human SNU-16 cells assessed as dead cells at 1 uM incubated for 72 hrs by annexin-V/FITC propidium iodide staining based flow cytometry analysis (reference value: […]); assay type: functional
SNU-16 [11] = assay: Induction of apoptosis in human SNU-16 cells assessed as live cells at 0.3 uM incubated for 72 hrs by annexin-V/FITC propidium iodide staining based flow cytometry analysis (reference value: 90.92%); assay type: functional
SNU-16 [12] = assay: Induction of apoptosis in human SNU-16 cells assessed as early apoptotic cells at 0.03 uM incubated for 72 hrs by annexin-V/FITC propidium iodide staining based flow cytometry analysis (reference value: 3.02%); assay type: functional
SNU-16 [13] = assay: Induction of apoptosis in human SNU-16 cells assessed as late apoptotic cells at 1 uM incubated for 72 hrs by annexin-V/FITC propidium iodide staining based flow cytometry analysis (reference value: 3.41%); assay type: functional
SNU-16 [14] = assay: Induction of apoptosis in human SNU-16 cells assessed as early apoptotic cells at 0.3 uM incubated for 72 hrs by annexin-V/FITC propidium iodide staining based flow cytometry analysis (reference value: 3.02%); assay type: functional
SNU-16 [15] = assay: Induction of apoptosis in human SNU-16 cells assessed as late apoptotic cells at 0.3 uM incubated for 72 hrs by annexin-V/FITC propidium iodide staining based flow cytometry analysis (reference value: 3.41%); assay type: functional
[16] = Toxicity in BALB/c nude mouse xenografted with human SNU-16 cells assessed as reduction in body weight at 50 mg/kg/day, ip administered for 18 days and measured every 3 days; assay type: organism-based; details: in vivo, 432 h, time 18 day
SNU-16 [17] = assay: Induction of apoptosis in human SNU-16 cells assessed as late apoptotic cells at 0.03 uM incubated for 72 hrs by annexin-V/FITC propidium iodide staining based flow cytometry analysis (reference value: 3.41%); assay type: functional
SNU-16 [18] = assay: Induction of apoptosis in human SNU-16 cells assessed as early apoptotic cells at 0.1 uM incubated for 72 hrs by annexin-V/FITC propidium iodide staining based flow cytometry analysis (reference value: 3.02%); assay type: functional
SNU-16 [19] = assay: Induction of apoptosis in human SNU-16 cells assessed as late apoptotic cells at 0.1 uM incubated for 72 hrs by annexin-V/FITC propidium iodide staining based flow cytometry analysis (reference value: 3.41%); assay type: functional
SNU-16 [20] = assay: Induction of apoptosis in human SNU-16 cells assessed as live cells at 0.03 uM incubated for 72 hrs by annexin-V/FITC propidium iodide staining based flow cytometry analysis (reference value: 90.92%); assay type: functional
[21] = Toxicity in BALB/c nude mouse xenografted with human HCT-116 cells assessed as reduction in body weight at 30 mg/kg/day, po administered for 18 days and measured every 3 days; assay type: organism-based; details: in vivo, 432 h, time 18 day
SNU-16 [22] = assay: Induction of apoptosis in human SNU-16 cells assessed as dead cells at 0.1 uM incubated for 72 hrs by annexin-V/FITC propidium iodide staining based flow cytometry analysis (reference value: […]); assay type: functional
SNU-16 [23] = assay: Induction of apoptosis in human SNU-16 cells assessed as early apoptotic cells at 1 uM incubated for 72 hrs by annexin-V/FITC propidium iodide staining based flow cytometry analysis (reference value: 3.02%); assay type: functional
SNU-16 [24] = assay: Induction of apoptosis in human SNU-16 cells assessed as live cells at 1 uM incubated for 72 hrs by annexin-V/FITC propidium iodide staining based flow cytometry analysis (reference value: 90.92%); assay type: functional

Sequence of Histone deacetylase 1 (Q13547 whole entry): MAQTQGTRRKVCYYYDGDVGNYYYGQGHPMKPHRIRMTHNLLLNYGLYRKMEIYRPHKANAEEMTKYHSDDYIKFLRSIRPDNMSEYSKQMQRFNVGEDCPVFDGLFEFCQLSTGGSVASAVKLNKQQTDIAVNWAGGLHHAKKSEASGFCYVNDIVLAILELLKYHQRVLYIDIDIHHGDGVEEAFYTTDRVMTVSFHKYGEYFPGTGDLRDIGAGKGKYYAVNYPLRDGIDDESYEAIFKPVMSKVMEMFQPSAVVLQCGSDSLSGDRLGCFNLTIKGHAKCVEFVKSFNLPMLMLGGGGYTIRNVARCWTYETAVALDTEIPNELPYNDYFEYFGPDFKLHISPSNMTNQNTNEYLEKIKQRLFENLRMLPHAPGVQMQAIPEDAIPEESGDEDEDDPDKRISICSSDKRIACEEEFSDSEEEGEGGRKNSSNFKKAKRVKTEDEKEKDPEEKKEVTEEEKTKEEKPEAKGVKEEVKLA
Sequence of Fibroblast growth factor receptor 4 (P22455 whole entry): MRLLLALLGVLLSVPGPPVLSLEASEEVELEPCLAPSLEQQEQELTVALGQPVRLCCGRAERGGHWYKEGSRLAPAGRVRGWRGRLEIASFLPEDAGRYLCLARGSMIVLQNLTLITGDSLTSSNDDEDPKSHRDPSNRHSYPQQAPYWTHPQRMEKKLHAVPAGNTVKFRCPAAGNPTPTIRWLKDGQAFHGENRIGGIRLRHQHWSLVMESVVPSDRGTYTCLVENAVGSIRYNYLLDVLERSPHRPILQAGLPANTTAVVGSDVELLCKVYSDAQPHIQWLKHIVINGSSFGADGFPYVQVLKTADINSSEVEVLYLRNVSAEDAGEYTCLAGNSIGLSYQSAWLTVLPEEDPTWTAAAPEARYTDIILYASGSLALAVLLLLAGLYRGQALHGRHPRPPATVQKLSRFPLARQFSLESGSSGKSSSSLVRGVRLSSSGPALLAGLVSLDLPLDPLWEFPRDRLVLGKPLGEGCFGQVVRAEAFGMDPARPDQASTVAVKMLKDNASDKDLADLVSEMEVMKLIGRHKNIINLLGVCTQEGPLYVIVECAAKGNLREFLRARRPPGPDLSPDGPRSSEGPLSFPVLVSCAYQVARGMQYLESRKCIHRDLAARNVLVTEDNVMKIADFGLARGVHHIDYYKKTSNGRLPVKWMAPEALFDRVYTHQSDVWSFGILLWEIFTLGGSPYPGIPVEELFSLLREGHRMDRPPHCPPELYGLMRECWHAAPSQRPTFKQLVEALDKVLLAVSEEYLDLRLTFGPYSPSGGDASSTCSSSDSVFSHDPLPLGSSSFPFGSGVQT

SMILES: COc1cc(OC)cc(N(CCNC(C)C)c2ccc3ncc(-c4cnn(CCOc5ccc(C(=O)NO)cc5)c4)nc3c2)c1
IC50 (Histone deacetylase 1): 0.0059 µM | IC50 [1]: 0.0013 µM | IC50 (Histone deacetylase 8): 0.288 µM | IC50 [2]: 0.0019 µM | IC50 [3]: 0.00062 µM | IC50 [4]: 0.0034 µM

SMILES: COc1cc(OC)cc(N(CCNC(C)C)c2ccc3ncc(-c4cnn(CCc5ccc(C(=O)NO)cc5)c4)nc3c2)c1
IC50 (Histone deacetylase 1): 0.069 µM

SMILES: COc1cc(OC)cc(N(CCNC(C)C)c2ccc3ncc(-c4cnn(Cc5ccc(/C=C/C(=O)NO)cc5)c4)nc3c2)c1
IC50 (Histone deacetylase 1): 0.047 µM | IC50 (K562): 0.46 µM | IC50 (cells): 0.12 µM | IC50 [5]: 0.028 µM | IC50 (A2780): 0.06 µM | IC50 (Jurkat): 6.38 µM | IC50 (SNU-16 [6]): 0.05 µM | IC50 (HCT-116): 0.06 µM

SMILES: COc1cc(OC)cc(N(CCNC(C)C)c2ccc3ncc(-c4cnn(Cc5ccc(C(=O)NO)cc5)c4)nc3c2)c1
IC50 (Histone deacetylase 1): > 1 µM

SMILES: COc1cc(OC)cc(N(CCNC(C)C)c2ccc3ncc(-c4cnn(CCC(=O)Nc5ccc(C(=O)NO)cc5)c4)nc3c2)c1
IC50 (Histone deacetylase 1): 0.0057 µM

SMILES: O=C(CCCCCCC(=O)Nc1ccccc1)NO [VORINOSTAT]
IC50 (K562): 2.24 µM | Activity (SNU-16 [7]): 5.77% | Activity (SNU-16 [8]): 80.33% | Activity (SNU-16 [9]): 6.4% | Activity (SNU-16 [10]): 4.21% | Activity (SNU-16 [11]): 80.66% | Activity (SNU-16 [12]): 3.12% | Activity (SNU-16 [13]): 15.42% | Activity (SNU-16 [14]): 2.48% | Activity (SNU-16 [15]): 10.46% | Activity [16]: Non-Toxic | Activity (SNU-16 [17]): 6.85% | Activity (SNU-16 [18]): 3.51% | Activity (SNU-16 [19]): 9.98% | Activity (SNU-16 [20]): 84.26% | Activity [21]: Non-Toxic | Activity (SNU-16 [22]): 6.19% | Activity (SNU-16 [23]): 3.16% | Activity (SNU-16 [24]): 77.22%

Continued, values first:

IC50 (Histone deacetylase 1): 0.653 µM
SMILES: COc1cc(OC)cc(N(CCNC(C)C)c2ccc3ncc(-c4cnn(CCCC(=O)NO)c4)nc3c2)c1

IC50 (Histone deacetylase 1): 0.177 µM
SMILES: COc1cc(OC)cc(N(CC2CC2)c2ccc3ncc(-c4cnn(CCCCC(=O)NO)c4)nc3c2)c1

IC50 (Histone deacetylase 1): 0.0058 µM | IC50 [4]: 0.013 µM
SMILES: COc1cc(OC)cc(N(CCCCCCC(=O)NO)c2ccc3ncc(-c4cnn(C)c4)nc3c2)c1

IC50 (Histone deacetylase 1): 0.172 µM
SMILES: COc1cc(OC)cc(N(CC2CC2)c2ccc3ncc(-c4cnn(CCCCCCCC(=O)NO)c4)nc3c2)c1

IC50 (Histone deacetylase 1): > 1 µM
SMILES: COc1cc(OC)cc(N(CC2CC2)c2ccc3ncc(-c4cnn(CCCC(=O)NO)c4)nc3c2)c1

IC50 (Histone deacetylase 1): 0.0063 µM
SMILES: COc1cc(OC)cc(N(CCNC(C)C)c2ccc3ncc(-c4cnn(CCCCCCCC(=O)NO)c4)nc3c2)c1
